Assay results: patent publication US20110105323A1, “Calcium Salts of Phosphorous Acid for Increasing the Effect of Fungicides” (BASF SE, priority 2008, published 2011)
Read-outs that look alike come from different tables or passages of the source.

Columns and labels:
Phytophthora infestans [1] = conditions: in vivo
Plasmopara viticola [2] = experiment: Example 9: downy mildew on grapevines, translaminar action; assay type: in vivo
Plasmopara viticola [3] = experiment: Example 10: downy mildew on grapevines, greenhouse, protective spray (7 days); assay type: in vivo
[4] = tested on: downy mildew on grapevines; experiment: Example 13: downy mildew on grapevines, outdoor test with natural infections; assay type: in vivo
Plasmopara viticola [5] = experiment: Example 7: downy mildew on grapevines, greenhouse, as example 6; assay type: in vivo
[6] = tested on: downy mildew on grapevines; experiment: Example 14: downy mildew on grapevines, outdoor test with natural infections; assay type: in vivo
Plasmopara viticola [7] = experiment: Example 6: downy mildew on grapevines, greenhouse, protective spray (1 day); assay type: in vivo
[8] = tested on: downy mildew on grapevines; experiment: Example 12: downy mildew on grapevines, outdoor test with natural infections; assay type: in vivo
Plasmopara viticola [9] = experiment: Example 8: downy mildew on grapevines, bar application pattern; assay type: in vivo
Phakopsora pachyrhizi = experiment: Example 11: soybean rust on soybeans, greenhouse; assay type: in vivo
Phytophthora infestans [10] = conditions: in vivo; remark: listed apart in the source

CCCCCCCCc1c(CC)nc2ncnn2c1N [fungicide A, 5-ethyl-6-octyl-[1,2,4]triazolo[1,5-a]pyrimidin-7-ylamine]
Efficacy W (Phytophthora infestans [1]): 39% | Efficacy W (Plasmopara viticola [2]; fungicide A 5 ppm, translaminar, applied to upper side of leaf 48 hours prior to inoculation): 1% | Efficacy W (Plasmopara viticola [3]; fungicide A 100 ppm, grapevine leaves sprayed 7 days before inoculation): 85%

[Ca+2].[O-]P([O-])O [Ca(H2PO3)2, calcium hydrogenphosphite]
Efficacy W ([4]; in vivo): 21% | Efficacy W (Plasmopara viticola [5]; in vivo): 3% | Efficacy W ([6]; in vivo): 24% | Efficacy W (Plasmopara viticola [2]; in vivo): 0% | Efficacy W (Plasmopara viticola [7]; in vivo): 3% | Efficacy W ([8]; in vivo): 18% | Efficacy W (Plasmopara viticola [3]; in vivo): 9% | Efficacy W (Plasmopara viticola [9]; in vivo): 0% | Efficacy W (Phakopsora pachyrhizi; in vivo): 48%

O=C(Nc1ccccc1-c1ccc(Cl)cc1)c1cccnc1Cl [boscalid]
Efficacy W (Phakopsora pachyrhizi; boscalid 20 ppm, soybean 'Monsoy' leaves sprayed 2 days before inoculation, scored after 10-12 days): 11%

COC(=O)N(OC)c1ccccc1COc1ccn(-c2ccc(Cl)cc2)n1 [pyraclostrobin]
Efficacy W (Plasmopara viticola [7]; pyraclostrobin 0.5 ppm in spray liquor, Riesling leaves sprayed 1 day before inoculation): 92%

N#Cc1sc2c(=O)c3ccccc3c(=O)c=2sc1C#N [dithianon]
Efficacy W ([4]; dithianon 400 ppm, outdoors, natural infections, 7 application dates, spray interval 14-16 days): 48% | Efficacy W (Plasmopara viticola [5]; dithianon 10 ppm in spray liquor, grapevine leaves sprayed 1 day before inoculation): 62% | Efficacy W ([6]; dithianon 300 ppm, outdoors, natural infections, spray interval 9-11 days, scored 4 days after the 8th application): 56% | Efficacy W (Phytophthora infestans [10]): 31% | Efficacy W ([8]; dithianon 300 ppm, outdoors, natural infections, spray interval 14-16 days, scored 1 day after the 6th application): 85% | Efficacy W (Plasmopara viticola [9]; dithianon 10 ppm, bar application on lower half of upper leaf side 1 day before inoculation, scored on apical half of leaf underside): 6%
